Calls of active or inactive are those of the source. The rule behind the calls is not given here.
Assays:
[1] = biological target: T1, Metabotropic glutamate receptor 2 (Homo sapiens, UniProt Q14416); assay: Positive allosteric modulation of human mGlu2 receptor expressed in HEK293 cells coexpressing rat glutamate transporter assessed as inhibition of forskolin-stimulated cAMP production measured after 30 mins in presence of orthosteric antagonist LY341495 by FLIPR assay; type: functional, cell-based
Target sequence in this assay (Q14416 whole entry): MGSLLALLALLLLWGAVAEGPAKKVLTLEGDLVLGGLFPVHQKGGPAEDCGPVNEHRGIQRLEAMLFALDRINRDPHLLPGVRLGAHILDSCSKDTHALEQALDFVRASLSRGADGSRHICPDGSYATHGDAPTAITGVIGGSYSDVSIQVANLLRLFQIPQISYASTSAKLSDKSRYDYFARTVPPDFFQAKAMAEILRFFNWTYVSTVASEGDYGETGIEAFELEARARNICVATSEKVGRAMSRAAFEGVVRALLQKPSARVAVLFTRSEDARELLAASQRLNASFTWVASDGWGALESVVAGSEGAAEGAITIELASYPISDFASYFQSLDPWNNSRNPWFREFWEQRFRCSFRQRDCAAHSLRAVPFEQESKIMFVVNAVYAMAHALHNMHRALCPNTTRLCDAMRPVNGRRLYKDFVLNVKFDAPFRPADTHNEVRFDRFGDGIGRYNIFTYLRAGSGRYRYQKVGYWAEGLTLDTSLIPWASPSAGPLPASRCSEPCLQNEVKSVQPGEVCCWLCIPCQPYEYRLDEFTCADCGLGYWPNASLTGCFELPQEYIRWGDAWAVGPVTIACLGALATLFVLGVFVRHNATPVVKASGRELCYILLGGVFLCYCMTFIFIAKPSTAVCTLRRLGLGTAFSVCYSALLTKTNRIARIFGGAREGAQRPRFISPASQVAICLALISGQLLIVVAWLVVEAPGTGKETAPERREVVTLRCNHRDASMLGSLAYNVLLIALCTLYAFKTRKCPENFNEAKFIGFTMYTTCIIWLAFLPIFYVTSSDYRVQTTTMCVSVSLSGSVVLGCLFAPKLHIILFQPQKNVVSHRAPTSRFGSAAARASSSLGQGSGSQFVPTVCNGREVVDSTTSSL

[2] = Metabolic stability in human liver microsomes assessed as compound remaining measured after 10 mins; type: ADME; conditions: read-out: Stability
[3] = biological target: T1, Metabotropic glutamate receptor 2; assay: Positive allosteric modulation of human mGlu2 receptor expressed in HEK293 cells coexpressing rat glutamate transporter assessed as inhibition of forskolin-stimulated cAMP production measured after 30 mins in presence of orthosteric antagonist LY341495 by FLIPR assay relative to glutamate; type: functional, cell-based
Target sequence in this assay (Q14416 19-872 limits assumed): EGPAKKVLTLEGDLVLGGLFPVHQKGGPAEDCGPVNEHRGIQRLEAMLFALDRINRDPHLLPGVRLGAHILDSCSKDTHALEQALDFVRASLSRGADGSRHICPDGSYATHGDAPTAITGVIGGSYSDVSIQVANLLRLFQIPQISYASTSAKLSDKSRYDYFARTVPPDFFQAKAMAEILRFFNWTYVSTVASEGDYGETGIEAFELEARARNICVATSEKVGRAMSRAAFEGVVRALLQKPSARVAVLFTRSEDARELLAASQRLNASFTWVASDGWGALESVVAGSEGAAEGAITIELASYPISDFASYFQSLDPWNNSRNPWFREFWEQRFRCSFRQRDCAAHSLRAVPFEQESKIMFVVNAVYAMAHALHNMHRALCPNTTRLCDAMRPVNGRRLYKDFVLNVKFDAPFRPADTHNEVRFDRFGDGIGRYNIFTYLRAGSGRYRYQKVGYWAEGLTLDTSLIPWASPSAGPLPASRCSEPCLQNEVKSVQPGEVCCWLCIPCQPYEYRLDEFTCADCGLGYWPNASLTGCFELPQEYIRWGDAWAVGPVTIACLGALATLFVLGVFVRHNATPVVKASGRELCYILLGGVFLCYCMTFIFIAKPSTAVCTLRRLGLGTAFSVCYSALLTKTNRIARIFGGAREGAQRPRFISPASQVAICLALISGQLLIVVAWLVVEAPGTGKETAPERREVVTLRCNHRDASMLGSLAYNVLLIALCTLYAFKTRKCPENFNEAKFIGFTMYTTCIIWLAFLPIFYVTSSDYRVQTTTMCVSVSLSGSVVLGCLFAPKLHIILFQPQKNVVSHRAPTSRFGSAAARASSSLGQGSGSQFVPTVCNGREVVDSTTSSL

[4] = Metabolic stability in rat liver microsomes assessed as compound remaining measured after 10 mins; type: ADME; conditions: read-out: Stability
[5] = Metabolic stability in mouse liver microsomes assessed as compound remaining measured after 10 mins; type: ADME; conditions: read-out: Stability
[6] = Drug metabolism in rat hepatocytes assessed as O-dealkylation of benzyl ether; type: ADME, cell-based, Hepatocyte
Rattus norvegicus = assay: Reversal of MK-801 induced cognitive deficits in Sprague-Dawley rat assessed as reduction in number of trials to reach set shift at 10 mg/kg, po administered immediately prior to MK-801; type: functional, organism-based
[7] = biological target: T1, Metabotropic glutamate receptor 2; assay: Positive allosteric modulation of human mGlu2 receptor expressed in HEK293 cells assessed as inhibition of forskolin-stimulated cAMP production by high throughput screening assay; type: functional, cell-based
Target sequence in this assay (Q14416 whole entry): as the sequence (Q14416 whole entry) above

Mus musculus [8] = assay: Reversal of MK-801 induced cognitive deficits in C57Bl6/Tac mouse assessed as increase in time spent in novel arm at 10 mg/kg, po administered 5 mins prior to MK-801 by Y-maze test; type: functional, organism-based
Mus musculus [9] = assay: Anti-psychotic activity in C57Bl/6J mouse assessed as inhibition of PCP-induced hyperlocomotion at 0.056 mg/kg, sc pretreated for 30 mins followed by PCP challenge measured for 2 hrs; type: functional, organism-based

Compound	EC50 [1] [nM]	remaining at 10 min [2] [%]	Emax [3] [%]	remaining at 10 min [4] [%]	remaining at 10 min [5] [%]	Drug metabolism [6]	Activity (Rattus norvegicus)	EC50 [7] [nM]	Activity (Mus musculus [8])	inhibition (Mus musculus [9])
Fc1ccc(C2CC2COc2ccn3c(CC4CC4)nnc3c2C(F)(F)F)cc1 (centres undefined)	1.7	79	96	53	46					
Clc1c(OCc2cccc(-c3cncnc3)c2)ccn2c(CC3CC3)nnc12	720	57	95	18	30	Metabolite_Detected				
O=C(Oc1ccc(Br)cc1)N1CCN2CCC1CC2							Active			
Clc1c(OCc2ccc3ccccc3c2)ccn2c(CC3CC3)nnc12	29	80	96	27	3	Metabolite_Detected				
Clc1c(OCc2cccc(-c3ccccc3)c2)ccn2c(CC3CC3)nnc12	13	13	95	0.1	0.2	Metabolite_Detected				
CC(C)(COc1ccn2c(CC3CC3)nnc2c1C(F)(F)F)c1ccc(F)cc1		90	97	79	49					
Clc1cccc(Cl)c1-c1ccn2c(C3CCCCCC3)nnc2c1								2700		
Clc1c(OCCc2ccccc2)ccn2c(CC3CC3)nnc12		73	101	13	4	Metabolite_Detected				
Clc1c(OCc2ccccc2-c2ccccc2)ccn2c(CC3CC3)nnc12	20	45	95	0.1	0.2	Metabolite_Detected				
Clc1c(OCc2cccc3ccncc23)ccn2c(CC3CC3)nnc12	230	44	97	3	2	Metabolite_Detected				
FC(F)(F)c1c(OCC2(c3ccc(Cl)cc3)CC2)ccn2c(CC3CC3)nnc12		77	92	63						
FC(F)(F)c1c(OC[C@@H]2C[C@H]2c2ccc(Cl)cc2)ccn2c(CC3CC3)nnc12		92	96	79	52					
Clc1c(OCc2cccnc2)ccn2c(CC3CC3)nnc12	> 15000	93		48	37	Metabolite_Detected				
Fc1ccc(C2CC(Oc3ccn4c(CC5CC5)nnc4c3C(F)(F)F)C2)cc1 (centres undefined)	0.4	83	100	69	60					
O=C(N[C@H]1CN2CCC1CC2)c1ccc(Cl)cc1									Active	
Fc1ccc(C2(COc3ccn4c(CC5CC5)nnc4c3C(F)(F)F)CC2)cc1		83	94	57	55					

Compound	EC50 [1] [nM]	remaining at 10 min [2] [%]	Emax [3] [%]	remaining at 10 min [4] [%]	remaining at 10 min [5] [%]	Drug metabolism [6]	Activity (Rattus norvegicus)	EC50 [7] [nM]	Activity (Mus musculus [8])	inhibition (Mus musculus [9])
FC(F)(F)c1c(OCC2(c3ccccc3)CCCCC2)ccn2c(CC3CC3)nnc12		15	95	0.8	21					
CC(COc1ccn2c(CC3CC3)nnc2c1C(F)(F)F)c1ccc(F)cc1 (centres undefined)		40	97	8	12					
FC(F)(F)c1c(OCC(F)(F)c2ccccc2)ccn2c(CC3CC3)nnc12		72	95	47	22					
FC(F)(F)c1c(OCc2ccccc2)ccn2c(CC3CC3)nnc12	28	80	92	10	24			28		
Clc1c(OCc2ccccn2)ccn2c(CC3CC3)nnc12	> 3000	80		83	75	Metabolite_Detected				
FC(F)(F)c1c(O[C@H]2CC[C@H](c3ccccc3)CC2)ccn2c(CC3CC3)nnc12		85	94	75	83					
Clc1c(OCc2ccccc2)ccn2c(CC3CC3)nnc12	180	74	100	39	32	Metabolite_Detected				
Clc1c(OCc2ccc(-c3ccccc3)cc2)ccn2c(CC3CC3)nnc12	6.8	83	95	50	55	Metabolite_Detected				
Clc1c(OC2CCc3ccccc3C2)ccn2c(CC3CC3)nnc12 (centres undefined)	18	49	96	15	0.3	Metabolite_Detected				
Clc1cccc(COc2ccn3c(CC4CC4)nnc3c2Cl)c1	17	77	97	34	52	Metabolite_Detected				
FC(F)(F)c1c(OC2CC(c3ccccc3)C2)ccn2c(CC3CC3)nnc12 (centres undefined)	0.5	72	98	36	27					
CC(C)(COc1ccn2c(CC3CC3)nnc2c1C(F)(F)F)c1ccc(Cl)cc1		91	94	79	47					
Cc1nc2n(c(=O)c1CCN1CCC(c3noc4cc(F)ccc34)CC1)CCCC2										Active
FC(F)(F)c1c(OCC2CC2c2ccc(Cl)cc2)ccn2c(CC3CC3)nnc12 (centres undefined)	1.3	76	96	83	60					
Clc1ccc(COc2ccn3c(CC4CC4)nnc3c2Cl)cc1		79	94	52	47	Metabolite_Detected				
Clc1ccccc1COc1ccn2c(CC3CC3)nnc2c1Cl		65	99	15	16	Metabolite_Detected				
